# Results: ChEMBL document CHEMBL3885861, “Open TG-GATES”
# Organism: Rattus norvegicus
# Assay: Open TG-GATES - Regimen: Daily Repeat
# Type: toxicity, organism-based, Sprague-Dawley
# Design: regimen Daily Repeat, gender Male, age 6 weeks
# Details: in vivo, po, route gavage; for IP / K / LDH / Na / PL / RALB / TBIL / TC / TG / TP / gamma-GTP / A/G / ALP / ALT / AST / BUN / CRE / Ca / Cl / DBIL / GLC: tissue Plasma; for APTT / Bas / Eos / Fbg / Hb / Ht / Lym / MCH / MCHC / MCV / Mono / Neu / PT / Plat / RBC / Ret / WBC: tissue Blood; for KIDNEY_L / KIDNEY_R / KIDNEY_TOTAL: tissue Kidney; for LIVER: tissue Liver
# [1] = 0 mg/kg, […], dose level Control, time 28 day
# [2] = 3 mg/kg, 72 h, dose level Low, time 3 day
# [3] = 3 mg/kg, […], dose level Low, time 7 day
# [4] = 3 mg/kg, […], dose level Low, time 14 day
# [5] = 3 mg/kg, […], dose level Low, time 28 day
smiles,measurement,setting,value
CCN(CC)N=O [N-NITROSODIETHYLAMINE],IP,[1],6.9 mg/dL
same,K,[1],3.7 meq/L
same,LDH,[1],203 IU/L
same,Na,[1],141 meq/L
same,PL,[1],135.2 mg/dL
same,RALB,[1],3.5 g/dL
same,TBIL,[1],0.2 mg/dL
same,TC,[1],72.4 mg/dL
same,TG,[1],104 mg/dL
same,TP,[1],6.1 g/dL
same,gamma-GTP,[1],1.2 IU/L
same,TERMINAL_BW,[2],235.3 g
same,APTT,[2],18.7 s
same,Bas,[2],0.2%
same,Eos,[2],1%
same,Fbg,[2],224.6 mg/dL
same,Hb,[2],13.3 g/dL
same,Ht,[2],38.4%
same,Lym,[2],82%
same,MCH,[2],21.3 pg
same,MCHC,[2],34.7%
same,MCV,[2],61.5 fL
same,Mono,[2],2%
same,Neu,[2],14.2%
same,PT,[2],11.7 s
same,Plat,[2],134.1 x10_4/uL
same,RBC,[2],624.4 x10_4/ul
same,Ret,[2],5.5%
same,WBC,[2],68.1 x10_2/uL
same,KIDNEY_L,[2],1.1 g
same,KIDNEY_R,[2],1.1 g
same,KIDNEY_TOTAL,[2],2.1 g
same,LIVER,[2],10.5 g
same,A/G,[2],1.5
same,ALP,[2],1018.6 IU/L
same,ALT,[2],33 IU/L
same,AST,[2],65.8 IU/L
same,BUN,[2],14.2 mg/dL
same,CRE,[2],0.4 mg/dL
same,Ca,[2],10.8 mg/dL
same,Cl,[2],102.6 meq/L
same,DBIL,[2],0.094 mg/dL
same,GLC,[2],204.6 mg/dL
same,IP,[2],8.5 mg/dL
same,K,[2],4.3 meq/L
same,LDH,[2],217.4 IU/L
same,Na,[2],140.6 meq/L
same,PL,[2],142.4 mg/dL
same,RALB,[2],3.3 g/dL
same,TBIL,[2],0.1 mg/dL
same,TC,[2],72.4 mg/dL
same,TG,[2],114.4 mg/dL
same,TP,[2],5.5 g/dL
same,gamma-GTP,[2],1.4 IU/L
same,TERMINAL_BW,[3],272 g
same,TERMINAL_BW,[4],323.6 g
same,TERMINAL_BW,[5],391.5 g
same,APTT,[3],20.6 s
same,Bas,[3],0%
same,Eos,[3],1%
same,Fbg,[3],219.2 mg/dL
same,Hb,[3],14 g/dL
same,Ht,[3],40%
same,Lym,[3],78.2%
same,MCH,[3],21.1 pg
same,MCHC,[3],34.8%
same,MCV,[3],60.7 fL
same,Mono,[3],3%
same,Neu,[3],17.2%
same,PT,[3],11.9 s
same,Plat,[3],142 x10_4/uL
same,RBC,[3],659.8 x10_4/ul
same,Ret,[3],4.8%
same,WBC,[3],96.9 x10_2/uL
same,APTT,[4],19.8 s
same,Bas,[4],0.8%
same,Eos,[4],1%
same,Fbg,[4],213.2 mg/dL
same,Hb,[4],14.4 g/dL
same,Ht,[4],41.3%
same,Lym,[4],78.4%
same,MCH,[4],20.8 pg
same,MCHC,[4],34.9%
same,MCV,[4],59.5 fL
same,Mono,[4],2%
same,Neu,[4],17.4%
same,PT,[4],12 s
same,Plat,[4],139.4 x10_4/uL
same,RBC,[4],695.4 x10_4/ul
same,Ret,[4],4.1%
same,WBC,[4],103.2 x10_2/uL
same,APTT,[5],19.1 s
same,Bas,[5],0.6%
same,Eos,[5],1.2%
same,Fbg,[5],215.6 mg/dL
same,Hb,[5],15.4 g/dL
same,Ht,[5],42.5%
same,Lym,[5],80.4%
same,MCH,[5],20.3 pg
same,MCHC,[5],36.3%
same,MCV,[5],55.9 fL
same,Mono,[5],2.4%
same,Neu,[5],15%
same,PT,[5],11.7 s
same,Plat,[5],124.2 x10_4/uL
same,RBC,[5],759.6 x10_4/ul
same,Ret,[5],2.9%
same,WBC,[5],104.7 x10_2/uL
same,KIDNEY_L,[3],1.2 g
same,KIDNEY_R,[3],1.2 g
same,KIDNEY_TOTAL,[3],2.3 g
same,KIDNEY_L,[4],1.3 g
same,KIDNEY_R,[4],1.2 g
same,KIDNEY_TOTAL,[4],2.5 g
same,KIDNEY_L,[5],1.3 g
same,KIDNEY_R,[5],1.3 g
same,KIDNEY_TOTAL,[5],2.7 g
same,LIVER,[3],12 g
same,LIVER,[4],13 g
same,LIVER,[5],14 g
same,A/G,[3],1.6
same,ALP,[3],847.6 IU/L
same,ALT,[3],31.2 IU/L
same,AST,[3],67.2 IU/L
same,BUN,[3],15.4 mg/dL
same,CRE,[3],0.4 mg/dL
same,Ca,[3],10.6 mg/dL
same,Cl,[3],103.4 meq/L
same,DBIL,[3],0.1 mg/dL
same,GLC,[3],191.6 mg/dL
same,IP,[3],8.2 mg/dL
same,K,[3],4.4 meq/L
same,LDH,[3],214.2 IU/L
same,Na,[3],140.4 meq/L
same,PL,[3],131.6 mg/dL
same,RALB,[3],3.4 g/dL
same,TBIL,[3],0.2 mg/dL
same,TC,[3],66.8 mg/dL
same,TG,[3],122.2 mg/dL
same,TP,[3],5.5 g/dL
same,gamma-GTP,[3],1 IU/L
same,A/G,[4],1.4
same,ALP,[4],752 IU/L
same,ALT,[4],36 IU/L
same,AST,[4],68.6 IU/L
same,BUN,[4],15.2 mg/dL
same,CRE,[4],0.4 mg/dL
same,Ca,[4],10.6 mg/dL
same,Cl,[4],102 meq/L
same,DBIL,[4],0.096 mg/dL
same,GLC,[4],192.2 mg/dL
same,IP,[4],7.7 mg/dL
same,K,[4],3.9 meq/L
same,LDH,[4],190.2 IU/L
same,Na,[4],141.2 meq/L
same,PL,[4],129.4 mg/dL
same,RALB,[4],3.4 g/dL
same,TBIL,[4],0.2 mg/dL
same,TC,[4],68.8 mg/dL
same,TG,[4],79.4 mg/dL
same,TP,[4],5.8 g/dL
